In patent US6706732B1, “Nasal preparation of guanidinoimino quinoline derivatives” (Takeda Chemical Industries, Ltd., priority 1999, dated 2004):

Assay: Serum concentration of Compound B after nasal administration to rats
Assay type: in vivo, male SD rat
Details: rat
Description: A male SD rat (8 weeks old) was anesthetized with ether and each of the preparations of Formulation Examples 1 to 6 was given into the left nasal cavity. The dose of Compound B was 0.75 mg/kg (Formulation Example 1), 1.5 mg/kg (Formulation Example 2), 3.0 mg/kg (Formulation Example 3), 6.0 mg/kg (Formulation Example 4), 1.5 mg/kg (Formulation Example 5) and 3.0 mg/kg (Formulation Example 6). Each of the preparations of Formulation Examples 1 to 4 was taken as a portion of about 10 mg, which was filled in a polyethylene tube (INTRAMEDIC PE90, BECKTON DICKINSON) and the polyethylene tube was inserted into the nasal cavity, where it was sprayed with 2 cc of air. Each of the preparations of Formulation Examples 5 and 6 was given as a 20 μl aliquot via a micropipette (*EXCELMYDEGI* 8000, D-5, SANKO JUNYAKU). The preparation of Comparative 1 was given intravenously into a femoral vein of the rat (dose: 1 mg/kg).
After administration of the preparation, blood was taken at a certain interval via a tail vain and examined for the serum concentration of Compound B.
In the case of `CS(=O)(=O)O.Cc1ccnc2c1C(=NNC(=N)N)CC(c1ccccc1Cl)C2` (single isomer, unassigned; (-)) [Compound B, (−)-7-(2-chlorophenyl)-5-guanidinoimino-4-methyl-5,6,7,8-tetrahydroquinoline methanesulfonate], the in vivo absorption is reported as “rapid in vivo absorption”.

Assay: not given
Details: not given
With `Cc1ccnc2c1C(=NNC(=N)N)CC(c1ccccc1Cl)C2.Cl` (centres unmarked) the melting point was 204 °C (dec.). A melting point of 202 to 204 °C was found for `CS(=O)(=O)O.Cc1ccc(F)cc1C1CC(=NNC(=N)N)c2c(C)ccnc2C1` (centres unmarked) in this work. With `Cc1ccnc2c1C(=NNC(=N)N)CC(c1cc(F)ccc1Cl)C2.Cl` (centres unmarked) the melting point was 268 °C (dec.). In the case of `Cc1ccnc2c1C(=NNC(=N)N)CC(c1cc(F)ccc1F)C2.Cl` (centres unmarked), the melting point is reported as 290 °C (dec.). A melting point of 201 to 203 °C was found for `Cc1cc(C)c2c(n1)CC(c1cc(F)ccc1C)CC2=NNC(=N)N.Cl` (centres unmarked) in this work. A melting point of 194 to 195 °C was found for `CS(=O)(=O)O.Cc1ccnc2c1C(=NNC(=N)N)CC(c1ccccc1Cl)C2` (single isomer, unassigned; (-)) [Compound B, (−)-7-(2-chlorophenyl)-5-guanidinoimino-4-methyl-5,6,7,8-tetrahydroquinoline methanesulfonate] in this work. A melting point of 202 to 205 °C was found for `Cc1ccc(F)cc1C1CC(=NNC(=N)N)c2c(C)ccnc2C1.Cl` (centres unmarked) [Compound C] in this work. A melting point of 192 to 198 °C was found for `Cc1ccc(F)cc1C1CC(=NNC(=N)N)c2c(C)ccnc2C1.Cl` (centres unmarked) [Compound E] in this work. A melting point of 209 to 212 °C was found for `CS(=O)(=O)O.Cc1ccnc2c1C(=NNC(=N)N)CC(c1cc(F)ccc1Cl)C2` (centres unmarked) [Compound H] in this work. A melting point of 206 to 209 °C was found for `CS(=O)(=O)O.Cc1ccnc2c1C(=NNC(=N)N)CC(c1cc(F)ccc1Cl)C2` (centres unmarked) [Compound I] in this work.
